Patent US20230114728A1 (Venatorx Pharmaceuticals, Inc., priority 2019, published 2023)
pEC50: −log10 of the molar value.

Assays:
E. coli K12 PBP2 = target: T1, E. coli K12 PBP2 (Escherichia coli, UniProt P0AD65); assay: Bocillin-FL fluorescence polarization competition binding assay, E. coli PBP2
T1 construct: made in house
Excerpt: (§1) Example I: Experimental Method for Penicillin-Binding Protein Binding Assays with Bocillin-FL Via Fluorescence Polarization
(§2) To determine the ability of boronic acid-based test PBP inhibitors to bind Penicillin Binding Proteins (PBPs), Bocillin-FL (fluorescently-labeled penicillin V; ThermoFisher Scientific) was used in a fluorescence polarization (FP) competition binding assay to assess inhibitor binding to PBP2, PBP3 or PBP4 from Escherichia coli (K12), PBP3 from Pseudomonas aeruginosa (PA01), PBP1a, PBP2 and PBP3 from Acinetobacter baumannii (ATCC 19606), and PBP2 from Neiserria gonorrheae (FA19). PBPs were cloned and purified as described previously (E. coli PBPs, King, D. T, et al., ACS Infectious Diseases 2015, 1, 175-184; P. aeruginosa PBP3, Han et. al., PNAS 2010, 107 (51), 22002-22007; A. baumannii PBPs, Penwell et. al., Antimicrob. Agents Chemother. 2015, 59 (3), 1680-1689; N. gonorrhoeae PBP2, Singh et. al., J Biol. Chem. 2019, 294 (38), 14020-14032). To establish assay conditions for competition binding, enzyme titration/saturation binding experiments were initially performed. Bocillin-FL was prepared at 0.2 μM in a buffer comprised of 50 mM Hepes (pH 8.0), 300 mM NaCl and 5% (v/v) glycerol for reactions with E. coli, P. aeruginosa and N. gonorrhoeae PBPs, and 25 mM Tris (pH 8.0), 200 mM NaCl and 10% (v/v) glycerol and 0.005% (v/v) Tween 20 for reactions with A. baumannii PBPs. Saturation binding was performed by mixing 40 μl of PBP solutions ranging in concentrations from 0-24 μM with 40 μl of the 0.2 μM Bocillin-FL solution, in individual wells of a black 384-well microplate. FP was measured immediately upon mixing (Excitation, 490 nm; Emission, 520 nm; g-factor, 0.96), using a Cytation3 (BioTek) microplate reader and measured continuously for up to 120 minutes. […] Bocillin-FL was added and the FP immediately measured for up to 60 minutes (90 minutes for E. coli PBP2). […]

A. baumannii PBP2 = target: T2, A. baumannii PBP2 (Acinetobacter baumannii, UniProt D0C8Z9); assay: Bocillin-FL fluorescence polarization competition binding assay, A. baumannii PBP2
T2 construct: made in house
T2 sequence (D0C8Z9 1-672): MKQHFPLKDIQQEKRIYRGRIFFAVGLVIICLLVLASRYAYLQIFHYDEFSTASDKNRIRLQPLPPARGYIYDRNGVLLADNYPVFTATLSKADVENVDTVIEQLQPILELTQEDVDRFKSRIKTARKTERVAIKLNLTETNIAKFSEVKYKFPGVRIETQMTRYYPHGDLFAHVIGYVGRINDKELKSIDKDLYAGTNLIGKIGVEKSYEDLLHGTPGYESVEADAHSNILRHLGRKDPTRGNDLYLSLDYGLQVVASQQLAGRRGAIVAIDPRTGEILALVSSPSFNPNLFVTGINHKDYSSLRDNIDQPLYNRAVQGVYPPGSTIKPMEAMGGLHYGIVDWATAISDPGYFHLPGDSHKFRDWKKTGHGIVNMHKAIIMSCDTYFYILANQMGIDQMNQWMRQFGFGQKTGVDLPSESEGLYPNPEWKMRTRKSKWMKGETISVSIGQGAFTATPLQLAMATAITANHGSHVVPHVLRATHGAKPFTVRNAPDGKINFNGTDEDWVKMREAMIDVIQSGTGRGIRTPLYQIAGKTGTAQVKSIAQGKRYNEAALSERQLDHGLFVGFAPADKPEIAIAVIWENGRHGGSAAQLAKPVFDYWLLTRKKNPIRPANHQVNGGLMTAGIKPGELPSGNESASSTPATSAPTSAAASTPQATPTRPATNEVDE
Excerpt: as §1
(§3) To determine the ability of boronic acid-based test PBP inhibitors to bind Penicillin Binding Proteins (PBPs), Bocillin-FL (fluorescently-labeled penicillin V; ThermoFisher Scientific) was used in a fluorescence polarization (FP) competition binding assay to assess inhibitor binding to PBP2, PBP3 or PBP4 from Escherichia coli (K12), PBP3 from Pseudomonas aeruginosa (PA01), PBP1a, PBP2 and PBP3 from Acinetobacter baumannii (ATCC 19606), and PBP2 from Neiserria gonorrheae (FA19). PBPs were cloned and purified as described previously (E. coli PBPs, King, D. T, et al., ACS Infectious Diseases 2015, 1, 175-184; P. aeruginosa PBP3, Han et. al., PNAS 2010, 107 (51), 22002-22007; A. baumannii PBPs, Penwell et. al., Antimicrob. Agents Chemother. 2015, 59 (3), 1680-1689; N. gonorrhoeae PBP2, Singh et. al., J Biol. Chem. 2019, 294 (38), 14020-14032). To establish assay conditions for competition binding, enzyme titration/saturation binding experiments were initially performed. Bocillin-FL was prepared at 0.2 μM in a buffer comprised of 50 mM Hepes (pH 8.0), 300 mM NaCl and 5% (v/v) glycerol for reactions with E. coli, P. aeruginosa and N. gonorrhoeae PBPs, and 25 mM Tris (pH 8.0), 200 mM NaCl and 10% (v/v) glycerol and 0.005% (v/v) Tween 20 for reactions with A. baumannii PBPs. Saturation binding was performed by mixing 40 μl of PBP solutions ranging in concentrations from 0-24 μM with 40 μl of the 0.2 μM Bocillin-FL solution, in individual wells of a black 384-well microplate. FP was measured immediately upon mixing (Excitation, 490 nm; Emission, 520 nm; g-factor, 0.96), using a Cytation3 (BioTek) microplate reader and measured continuously for up to 120 minutes. […] The competition binding assay (80 μl final volume) was validated using beta-lactams and PBPs at final concentrations of: 1.5 μM, E. coli PBP3; 0.75 μM, P. aeruginosa PBP3; 1 μM A. baumannii PBP1a; 2.5 μM A. baumannii PBP2; 0.2 μM A. baumannii PBP3; and […] N. gonorrhoeae PBP2. Bocillin-FL was at 0.1 μM (0.05 μM with A. baumannii PBP1a) and beta-lactam concentrations ranged from 0-1000 μM. […] Bocillin-FL was added and the FP immediately measured for up to 60 minutes (90 minutes for E. coli PBP2). […] The beta-lactam potency was reported as the concentration of beta-lactam required to reduce the amount of PBP bound-Bocillin-FL by 50% (EC50). […] Binding assays for boronic acid PBP inhibitors were performed in an identical fashion for the respective PBPs

E. coli K12 PBP4 = target: T3, E. coli K12 PBP4 (Escherichia coli, UniProt P24228); assay: Bocillin-FL fluorescence polarization competition binding assay, E. coli PBP4; conditions: E. coli PBP4; assay validation with beta-lactams; read-out: EC50 (concentration of beta-lactam required to reduce the amount of PBP bound-Bocillin-FL by 50%)
T3 construct: made in house
Excerpt: as §1, §2

A. baumannii PBP1a = A. baumannii PBP1a (Acinetobacter baumannii, UniProt A0ABX6CK30); assay: Bocillin-FL fluorescence polarization competition binding assay, A. baumannii PBP1a
Excerpt: as §1, §3

A. baumannii PBP3 = A. baumannii PBP3 (Acinetobacter baumannii, UniProt A0ABX6CK25); assay: Bocillin-FL fluorescence polarization competition binding assay, A. baumannii PBP3
Excerpt: as §1, §3

## CC1(C)S[C@@H]2[C@H](/N=C/N3CCCCCC3)C(=O)N2[C@H]1C(=O)O [mecillinam, reference compound]
E. coli K12 PBP2
  pEC50: 5.68
A. baumannii PBP2
  pEC50: 6.40

## C[C@@H](O)[C@H]1C(=O)N2C(C(=O)O)=C(S[C@@H]3CN[C@H](C(=O)N(C)C)C3)[C@H](C)[C@H]12 [meropenem, reference compound]
E. coli K12 PBP4
  pEC50: > 5.70
A. baumannii PBP1a
  pEC50: 6.64
A. baumannii PBP3
  pEC50: 6.64
